Results reported in patent US20240197867A1, “NEURAL CONTROL OF ADAPTIVE IMMUNITY” (The Feinstein Institutes for Medical Research, priority 2021, published 2024).

Target: T1, Gi-DREADD (hM4Di) on TRPV1+ neurons (Homo sapiens, UniProt P08173, A203G/Y113C)
T1 construct: expressed in transfected cells; host or cells: TRPV1+ neurons of TRPV1Cre/Gi-DREADD transgenic mice (TRPV1Cre x R26-LSL-Gi-DREADD), in vivo
T1 sequence (P08173 1-479 Y113C/A203G): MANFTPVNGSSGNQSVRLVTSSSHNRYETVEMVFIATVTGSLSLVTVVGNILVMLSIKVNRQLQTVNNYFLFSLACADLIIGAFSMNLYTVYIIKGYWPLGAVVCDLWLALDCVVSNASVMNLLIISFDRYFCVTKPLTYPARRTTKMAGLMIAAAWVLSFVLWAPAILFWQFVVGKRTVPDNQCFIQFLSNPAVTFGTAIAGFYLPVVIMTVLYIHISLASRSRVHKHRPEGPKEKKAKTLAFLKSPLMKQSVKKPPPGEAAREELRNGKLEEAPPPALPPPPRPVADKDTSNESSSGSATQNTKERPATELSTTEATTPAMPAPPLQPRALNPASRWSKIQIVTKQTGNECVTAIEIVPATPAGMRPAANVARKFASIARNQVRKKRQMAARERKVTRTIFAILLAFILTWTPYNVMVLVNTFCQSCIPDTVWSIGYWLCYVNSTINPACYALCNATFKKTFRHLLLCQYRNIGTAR
Experiment: Chemogenetic silencing of TRPV1+ neurons before intratracheal NP27-OVA immunization; NP-specific antibody titer by ELISA
Assay type: in vivo
Conditions: TRPV1-Gi-DREADD mice; CNO intraperitoneally 30 minutes prior to intratracheal immunization with NP27-OVA; D14 post-immunization; n=11; p=0.0017 vs vehicle
Protocol: FIG. 1. Silencing of sensory nerves at the time of primary immunization impacts antigen specific antibody responses. TRPV1^Cre/Gi-DREADD mice were administered with vehicle (DMSO) or CNO 30 min prior to immunization. Titer of NP-specific antibodies were monitored using ELISA.
Using an intra-tracheal instillation technique, specific antigens were delivered in the lung. Tracheal instillations are preferred methodology, over inhalation protocols that may primarily target the upper respiratory tract. This allows for making subsequent physiological measurements on test animals, or reinstallation using the same animal. Also, the dose of the inoculum introduced into the lungs can be carefully determined and more accurately delivered to ensure animal recovery. […] TRPV1+ neurons were selectively silenced at the time of immunization using a chemogenetic mouse model. The Gi-DREADD, also known as human muscarinic receptor 4 (hM4Di), is a mutated muscarinic acetylcholine receptor that, when activated by its ligand, CNO, initiates the inhibitory G-protein signaling cascade that inhibits neuronal signaling and/or excitability. TRPV1Cre/Gi-DREADD mice that express Gi-DREADD on TRPV1+ neurons were generated by crossing TRPV1Cre mice with R26-LSLGi-DREADD mice controls. […] Antibody levels were assessed over time. […]

For C[N+]1([O-])CCN(C2=Nc3cc(Cl)ccc3Nc3ccccc32)CC1 [CNO, clozapine-N-oxide], which “Anti-NP IgG1, Mean±SEM” value is on record?
Its value is 42,525+14,641 U/mL.
